Inhibition data for 89 compounds are collected here from PubChem BioAssay AID1249 (Columbia University Molecular Screening Center, 2008).

Each structure is given as a SMILES string. The source made the active and inactive calls. The rule behind the calls is not given here.

The test is described as follows: cellular cytoskeleton assembly phenotype modulators – imaging, high-content imaging, retest and dose response, confirmation (AID 1249).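 Note: compound exposure lasted 24 h before fixation; plate controls were untreated cells for no effect and reference compound treated cells for full effect.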 The note with it: cell-based imaging, cytoskeleton assembly phenotype, high content; at 2 µM; stronger effect = higher value.

`Cc1c(CCO)c(=O)n(-c2ccccc2)n1S(=O)(=O)c1ccc(Cl)cc1`: the inhibition is -11% (inactive).
In the case of `Cc1cc(OCc2ccc(F)cc2)nc(-c2ccccc2O)n1` it was 2.1% (inactive); in that of `CCCc1nc(SCC(=O)N2CCc3ccccc32)c2c(C)c(C)sc2n1`, 2.2% (inactive).
As for `OCCN=C(c1ccccc1)C12CN3CN(CN(C3)C1)C2`, the inhibition was -2.8% (inactive).
With `N=c1c2c(-c3ccccc3)c(-c3ccccc3)n(Cc3ccccc3)c2ncn1CCCn1ccnc1` the figure was -9.6% (inactive); with `CC(=O)c1cccc(NS(=O)(=O)c2c(C)noc2C)c1`, -13.9% (inactive); with `CCOC(=O)C1CCN(Cc2ccccc2C)CC1`, 5.4% (inactive).
Regarding `CC(=O)Nc1ccc(NC2(C)C(=O)c3ccccc3C2=O)cc1`, the inhibition is 0.7% (inactive).
With `COc1ccc(C(=O)c2ccc(N(C)C)cc2)c2ccccc12` the figure was -3.3% (inactive); with `O=C(Nc1ccccc1)N1CCC(c2ccccc2)C1` (centres undefined), -9.2% (inactive); with `COc1ccc(S(=O)(=O)Nc2cc3c(C(C)=O)c(C)oc3c3ccccc23)cc1`, -5.1% (inactive).
In the case of `Cc1cc(C(=O)NN)c2cc(Br)ccc2n1` it was -2% (inactive); in that of `COc1ccc(OC)c2sc(NC(=O)CCS(=O)(=O)c3ccccc3)nc12`, -5.2% (inactive).
With `CCCOC(=O)CSC1=C(C#N)C(c2ccccc2OC)C(C#N)C(=O)N1` (centres undefined), the inhibition is -1.7% (inactive).
In the case of `O=C(Nc1ccccc1)c1nnsc1S(=O)(=O)c1ccc(Cl)cc1` it was 5.3% (inactive); in that of `Cc1ccc(CSc2nc3ccccc3cc2C=O)cc1`, -4% (inactive).
In the case of `CCOc1ccc2[nH]c(C)c(CN3CCOCC3)c(=O)c2c1` it was -4.5% (inactive); in that of `C=CCOC(=O)C1=C(C)OC(N)=C(C#N)C12C(=O)N(CN1CCOCC1)c1ccccc12` (centres undefined), -12.8% (inactive).
In the case of `O=C(CS(=O)(=O)c1cn(Cc2cccc(F)c2)c2ccccc12)N1CCCCC1` it was -1.5% (inactive); in that of `CC(C(=O)Nc1ccc(Br)cc1C(=O)c1ccccc1)N1CCOCC1` (centres undefined), 6% (inactive).
As to `Oc1ccc(N=Nc2n[nH]c(-c3ccc(Cl)cc3)n2)cc1`, the inhibition is -2.5% (inactive).
As for `Cc1ncc(CO)c2cc(C(N)=O)c(=Nc3ccccc3)oc12`, the inhibition is -1.3% (inactive).
With `COC(=O)c1ccccc1NC(=O)c1ccc(-c2cccc(Cl)c2)o1` the figure was 2.6% (inactive); with `Cc1nn(CC(=O)Nc2ccc(C(=O)N(C)C)cc2)c(=O)c2ccccc12`, 4.3% (inactive); with `COc1ccc(-c2cc(C(=O)Nc3cc(C)n(Cc4ccc(Cl)cc4)n3)no2)cc1OC`, 6.8% (inactive).
Consider `C=CCn1c(N)c(C(=O)OCC(C)C)c2nc3ccccc3nc21`, for which the inhibition was -0.2% (inactive).
In the case of `COc1ccc(CS(=O)(=O)/C(Cl)=C(/Cl)C(=O)Nc2ccc(OC)nc2)cc1` it was -6.2% (inactive); in that of `Cc1ccccc1-c1nc(CN2CCC(C(=O)NCCCN3CC(C)CC(C)C3)CC2)c(C)o1` (centres undefined), 0.8% (inactive).
With `CCOC(=O)c1ccc(N2C(=O)CC(N3CCC(O)(c4ccc(Br)cc4)CC3)C2=O)cc1` (centres undefined) the figure was 5.5% (inactive); with `COc1ccc(-c2cc3ccccc3oc2=O)cc1NC(=O)c1ccc([N+](=O)[O-])o1`, -8.3% (inactive); with `O=C(NCc1ccco1)c1ccc(CS(=O)(=O)Cc2ccc(Cl)cc2)o1`, -2.2% (inactive).
In the case of `CCC(C)C1C(C#N)=C(N)Oc2n[nH]c(-c3ccccc3)c21` (centres undefined) it was 1.1% (inactive); in that of `O=C(Oc1csc(=S)n1C(=O)c1ccccc1)c1ccccc1`, -3% (inactive).
Regarding `COc1cc(/C=C(/C#N)C(=O)NCCc2c[nH]c3ccccc23)ccc1OCc1ccccc1F`, the inhibition was 2.3% (inactive).
With `Cc1ccc(NS(=O)(=O)c2cc(C(=O)NCCSC3CCCCC3)ccc2C)cc1` the figure was -1.3% (inactive).
In the case of `Oc1ccc(Nc2nc3ccccc3nc2Nc2ccc(O)cc2)cc1` it was -1.9% (inactive).
With `Oc1ccc(Nc2nc(-c3ccc4ccccc4c3)cs2)cc1` the figure was -9.7% (inactive).
As to `CC(=O)Cn1c(N2CCC(Cc3ccccc3)CC2)nc2c1c(=O)[nH]c(=O)n2C`, the inhibition is -5.3% (inactive).
With `COc1ccc(CSc2nc3ccccc3[nH]2)cc1` the figure was 9.9% (inactive).
In the case of `CCN(CC)S(=O)(=O)c1ccc(NC(=O)C(C)N(c2ccc(OC)cc2)S(C)(=O)=O)cc1` (centres undefined) it was -14.1% (inactive); in that of `COC(=O)CCC(=O)Nc1cccc(Br)c1`, 4.9% (inactive); in that of `Cc1oc(-c2ccc(Cl)cc2)cc1-c1nn2c(-c3ccoc3C)nnc2s1`, 0.3% (inactive).
As to `O=C(N/N=C/c1ccc[nH]1)c1sc2ccccc2c1Cl`, the inhibition was -8.7% (inactive).
With `COc1ccc(Oc2cc(NC(=O)c3nn(C)cc3[N+](=O)[O-])cc([N+](=O)[O-])c2)cc1` the figure was 11.6% (inactive).
In the case of `CSCCC(NC(=O)OCc1ccccc1)C(=O)O` (centres undefined) it was -2% (inactive); in that of `CC1=C(C#N)C(Nc2cccc(C)n2)(C(F)(F)F)C(=O)N1` (centres undefined), 7% (inactive); in that of `C/C(=N\Nc1nc2c(s1)CCCC2)c1ccccc1`, -2.4% (inactive).
In the case of `Cc1ccccc1OCC(=O)Nc1ccc2c(c1)COC2=O` it was -15.6% (inactive); in that of `COc1ccc(Cn2c(CCC(=O)O)nc3cccnc32)cc1`, -3% (inactive).
With `O=C(O)c1ccccc1Nc1ccccc1C(=O)O`, the inhibition is 0.6% (inactive).
For the compound `COCCCNC(=S)NC1CC2CCCC(C1)N2Cc1ccco1` (centres undefined), the inhibition is 4.7% (inactive).
`COc1ccc(-c2n[nH]c(=S)n2C2CCCCC2)cc1`: the inhibition is 5.3% (inactive).
With `O=C(NCc1ccncc1)c1ccc(Br)cc1` the figure was 0.2% (inactive).
With `COc1cc(/C=N/NC(=O)Nc2ccccc2)ccc1OCCOc1ccccc1C` the figure was 3.1% (inactive); with `CC(C)CCN1CC(C(=O)NCCC2=CCCCC2)CC1=O` (centres undefined), -12.9% (inactive); with `Cc1n[nH]c(=O)nc1NCc1ccccc1`, 4% (inactive).
In the case of `COc1ccc(N=c2oc3ccc(OC)cc3cc2-c2nc3ccccc3[nH]2)cc1` it was 4.3% (inactive); in that of `C/C(=N\O)c1ccc2c3ccccc3n(C)c2c1`, -20.9% (inactive); in that of `O=C(OCC(=O)N1CCN(c2ccccc2)CC1)c1ccc2ncsc2c1`, 0.2% (inactive).
As to `Clc1ccc(C2=Nn3c(nnc3-c3cccnc3)SC2)s1`, the inhibition was 0% (inactive).
In the case of `O=C(Nc1ccccc1)c1nnsc1S(=O)c1ccc(Cl)cc1` (centres undefined) it was -0.9% (inactive).
In the case of `C=CCCCOc1ccc(C(=O)O)cc1` it was -2.1% (inactive).
In the case of `CCOC(=O)N1CCC(NC(=O)c2ccc(CS(=O)(=O)c3ccc(OC)cc3)o2)CC1` it was -7.4% (inactive); in that of `CC[C@@H](C)[C@H](NC(=O)OC(C)(C)C)c1nnc(S(=O)(=O)Cc2cc(C)ccc2C)o1`, -2.4% (inactive); in that of `COc1ccc(C(=O)C(CN2CCOCC2)c2ccccc2)cc1` (centres undefined), 1.1% (inactive).
As for `CC(=O)Nc1nc2cc3c(cc2s1)OCO3`, the inhibition was 1.3% (inactive).
As for `Cn1nc(C(=O)OCC(=O)N2CCc3ccccc32)c2ccccc2c1=O`, the inhibition is 4.3% (inactive).
For `CC1=NNC(=O)/C1=C\c1cn(-c2ccccc2)nc1-c1ccc(Cl)cc1`, the inhibition is -11.5% (inactive).
In the case of `CCN1/C(=C\C=C\C2=[N+](CC)c3ccccc3C2(C)C)C(C)(C)c2ccccc21` it was -15.4% (inactive); in that of `CCOc1ccc(C2/C(=C(\O)c3c(C)[nH]c(C(=O)OC)c3C)C(=O)C(=O)N2CCN(C)C)cc1` (centres undefined), -9% (inactive); in that of `O=C1C(=O)c2ccccc2-c2ccccc21`, -13.5% (inactive).
In the case of `Cc1nccn1-c1ccc(C(F)(F)F)cc1NC=O` it was -12.8% (inactive); in that of `O=S(=O)(Cc1ccccc1Cl)N1CCN(Cc2ccc3c(c2)OCO3)CC1`, 41.5% (inactive); in that of `COc1ccc(C(=O)c2c(C(F)(F)F)oc3c2C(=O)c2ccccc2C3=O)cc1`, -14.9% (inactive).
In the case of `COc1ccc(N2C(=O)CC(NC3CCCCNC3=O)C2=O)cc1` (centres undefined) it was -8.6% (inactive); in that of `CCNCC(O)COCC(O)CNCC` (centres undefined), 5.1% (inactive); in that of `C[n+]1ccc(/C=C/c2ccc(Br)cc2)cc1`, 7.4% (inactive).
For `O=C1CC(N2CCN(Cc3ccc4c(c3)OCO4)CC2)C(=O)N1Cc1ccc(N2CCCC2=O)cc1` (centres undefined), the inhibition is -1.8% (inactive).
With `COc1ccc(NC(=O)N2CCn3c2nc2ccccc23)cc1` the figure was 5% (inactive); with `COc1cc2[nH]cc(C(=O)NCCc3ccccc3)c(=O)c2cc1OC`, 1.5% (inactive).
With `CCOC(=O)/C(=C\c1cccnc1)C(=O)c1cc(C(C)=O)c(Nc2ccccc2)s1`, the inhibition was 5.1% (inactive).
For `Cc1cccnc1N(C(=O)Nc1ccccc1)C1=NCC(C)(C)S1`, the inhibition is -10.2% (inactive).
With `CCn1c(=O)c2c(n3cnnc13)-c1ccccc1CC21CCCCC1` the figure was 5.6% (inactive).
With `N#Cc1c(NCc2ccccc2)ccnc1NCc1cccnc1` the figure was 1.2% (inactive).
In the case of `CC(=O)NC1CC2CCCC(C1)N2` (centres undefined) it was -18.6% (inactive); in that of `COC(=O)CCSc1nccn1Cc1ccccc1`, -9.8% (inactive).
Take `Cc1csc(NC(=O)CSc2nnc(-c3cccs3)n2C)n1`: the inhibition was -10.1% (inactive).
As to `CCn1ccnc1C(O)c1cccc(OC)c1` (centres undefined), the inhibition is 6.1% (inactive).
With `O=C(Nc1cnccn1)C1c2ccccc2Oc2ccccc21` the figure was 9.9% (inactive).

As usually defined, the inhibition is the drop in the measured response relative to a control, in per cent.
